Data reported in US7238701B2, “Substituted tetrahydrobenzothienopyrimidinamine compounds useful for treating hyper-proliferative disorders” (Bayer Pharmaceuticals Corporation, priority 2003, dated 2007).

How the values were obtained:
[1] = tested on: A431cells (human epidermoid carcinoma); test: In vitro tumor cell proliferation assay (Cell Titer-Glo luminescent cell viability), A431 cells; type: cell-based; conditions: A-431, 72 h, 72 hours drug exposure, 10% Fetal Bovine Serum, ATP luminescence readout, read-out: IC50 (50% inhibition of cell proliferation)
Procedure, shortened: (§1)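 ATP luminescence (CellTiter-Glo) measured proliferation after 72 h compound exposure at 37 °C, giving IC50 values. Serial dilutions spanning 64 pM–100 μM in 0.1% DMSO were applied one day after plating 2.5×10^3 cells/well in RPMI plus 10% fetal bovine serum.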

[2] = tested on: BT474 (human breast carcinoma); test: In vitro tumor cell proliferation assay (Cell Titer-Glo luminescent cell viability), BT474 cells; type: cell-based; conditions: BT-474, 72 hours drug exposure, 10% Fetal Bovine Serum, ATP luminescence readout, read-out: IC50 (50% inhibition of cell proliferation)
Procedure, shortened: as §1

SMILES | IC50 [1] [µM] | IC50 [2] [µM]
CC1CCCN1CCC1CCc2c(sc3ncnc(Nc4ccc5c(cnn5Cc5ccccc5)c4)c23)C1 (stereo not shown) [Example 238, N-(1-benzyl-1H-indazol-5-yl)-7-[2-(2-methylpyrrolidin-1-yl)ethyl]-5,6,7,8-tetrahydro[1]benzothieno[2,3-d]pyrimidin-4-amine] | < 50 | < 5
c1ccc(Cn2ncc3cc(Nc4ncnc5sc6c(c45)CCC(CCN4CCCCC4)C6)ccc32)cc1 (stereo not shown) [Example 239, (1-Benzyl-1H-indazol-5-yl)-[7-(2-piperidine-1-yl-ethyl)-5,6,7,8-tetrahydro-benzo[4,5]thieno[2,3-d]pyrimidin-4-yl]-amine] | < 50 | < 5
